Assay results published in the supplement of paper PMC13207355.

Experiments:
Settings in all cases: exposure time: 72 h
E28 [1] = patient-derived glioblastoma stem cells of classical subtype; assay: surviving fraction (nuclei count normalised to DMSO); higher = more cells surviving (less toxic)
E34 [2] = patient-derived glioblastoma stem cells of proneural subtype; assay: as above
E13 [3] = patient-derived glioblastoma stem cells of classical subtype; assay: as above
E21 [4] = patient-derived glioblastoma stem cells of mesenchymal subtype; assay: as above
E57 [5] = patient-derived glioblastoma stem cells of mesenchymal subtype; assay: as above
FT3469 [6] = normal neural stem cell line; assay: as above
E31 [7] = patient-derived glioblastoma stem cells of proneural subtype; assay: as above
E28 [8] = assay: phenotypic distance (Euclidean, principal components) from DMSO controls (arbitrary units); higher = stronger morphological change
E34 [9] = assay: as above
E13 [10] = assay: as above
E21 [11] = assay: as above
E57 [12] = assay: as above
FT3469 [13] = assay: as above
E31 [14] = assay: as above
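Wherever phenotypic distance (Euclidean, principal components) from DMSO controls is given: cell Painting imaging in 384-well plates, CellProfiler features reduced to at least 20 principal components, Euclidean distance versus same-plate DMSO vehicle wells (0.1% v/v), median over six images per well.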
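Wherever surviving fraction (nuclei count normalised to DMSO) is given: nuclei counted by high-content imaging of Hoechst-stained cells in laminin-coated 384-well plates, relative to 0.1% DMSO vehicle wells, with staurosporine as cell-death control.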

Structure (SMILES): CCOC(=O)C1=C(C)NC(C)=C(C(=O)OCC)C1c1c(F)c(F)c(F)c(F)c1F [Nemadipine-A]
- surviving fraction (E28 [1]; 4.1 nM): 0.9
- surviving fraction (E28 [1]; 12.3 nM): 1.03
- surviving fraction (E28 [1]; 37 nM): 0.81
- surviving fraction (E28 [1]; 111.1 nM): 0.996
- surviving fraction (E28 [1]; 333.3 nM): 0.945
- surviving fraction (E28 [1]; 1000 nM): 0.934
- surviving fraction (E28 [1]; 3000 nM): 0.704
- surviving fraction (E34 [2]; 4.1 nM): 1.01
- surviving fraction (E34 [2]; 12.3 nM): 0.767
- surviving fraction (E34 [2]; 37 nM): 1.14
- surviving fraction (E34 [2]; 111.1 nM): 1.16
- surviving fraction (E34 [2]; 333.3 nM): 1.13
- surviving fraction (E34 [2]; 1000 nM): 0.926
- surviving fraction (E34 [2]; 3000 nM): 0.909
- surviving fraction (E13 [3]; 4.1 nM): 0.797
- surviving fraction (E13 [3]; 12.3 nM): 0.944
- surviving fraction (E13 [3]; 37 nM): 0.915
- surviving fraction (E13 [3]; 111.1 nM): 0.841
- surviving fraction (E13 [3]; 333.3 nM): 0.948
- surviving fraction (E13 [3]; 1000 nM): 1.09
- surviving fraction (E13 [3]; 3000 nM): 0.764
- surviving fraction (E21 [4]; 4.1 nM): 0.897
- surviving fraction (E21 [4]; 12.3 nM): 0.936
- surviving fraction (E21 [4]; 37 nM): 0.991
- surviving fraction (E21 [4]; 111.1 nM): 0.971
- surviving fraction (E21 [4]; 333.3 nM): 0.924
- surviving fraction (E21 [4]; 1000 nM): 0.931
- surviving fraction (E21 [4]; 3000 nM): 0.838
- surviving fraction (E57 [5]; 4.1 nM): 0.945
- surviving fraction (E57 [5]; 12.3 nM): 1.07
- surviving fraction (E57 [5]; 37 nM): 1.04
- surviving fraction (E57 [5]; 111.1 nM): 0.954
- surviving fraction (E57 [5]; 333.3 nM): 1.03
- surviving fraction (E57 [5]; 1000 nM): 0.984
- surviving fraction (E57 [5]; 3000 nM): 0.77
- surviving fraction (FT3469 [6]; 4.1 nM): 1.03
- surviving fraction (FT3469 [6]; 12.3 nM): 0.928
- surviving fraction (FT3469 [6]; 37 nM): 1.17
- surviving fraction (FT3469 [6]; 111.1 nM): 1.02
- surviving fraction (FT3469 [6]; 333.3 nM): 0.866
- surviving fraction (FT3469 [6]; 1000 nM): 1.1
- surviving fraction (FT3469 [6]; 3000 nM): 0.804
- surviving fraction (E31 [7]; 4.1 nM): 1.15
- surviving fraction (E31 [7]; 12.3 nM): 1.05
- surviving fraction (E31 [7]; 37 nM): 1.01
- surviving fraction (E31 [7]; 111.1 nM): 1.26
- surviving fraction (E31 [7]; 333.3 nM): 1.3
- surviving fraction (E31 [7]; 1000 nM): 1.15
- surviving fraction (E31 [7]; 3000 nM): 1.13
- phenotypic distance (E28 [8]; 4.1 nM): 0.43
- phenotypic distance (E28 [8]; 12.3 nM): 0.613
- phenotypic distance (E28 [8]; 37 nM): 0.807
- phenotypic distance (E28 [8]; 111.1 nM): 0.686
- phenotypic distance (E28 [8]; 333.3 nM): 0.703
- phenotypic distance (E28 [8]; 1000 nM): 0.642
- phenotypic distance (E28 [8]; 3000 nM): 1.14
- phenotypic distance (E34 [9]; 4.1 nM): 0.666
- phenotypic distance (E34 [9]; 12.3 nM): 0.857
- phenotypic distance (E34 [9]; 37 nM): 0.641
- phenotypic distance (E34 [9]; 111.1 nM): 0.619
- phenotypic distance (E34 [9]; 333.3 nM): 0.843
- phenotypic distance (E34 [9]; 1000 nM): 0.698
- phenotypic distance (E34 [9]; 3000 nM): 0.734
- phenotypic distance (E13 [10]; 4.1 nM): 0.957
- phenotypic distance (E13 [10]; 12.3 nM): 0.892
- phenotypic distance (E13 [10]; 37 nM): 0.571
- phenotypic distance (E13 [10]; 111.1 nM): 0.762
- phenotypic distance (E13 [10]; 333.3 nM): 0.542
- phenotypic distance (E13 [10]; 1000 nM): 0.692
- phenotypic distance (E13 [10]; 3000 nM): 0.903
- phenotypic distance (E21 [11]; 4.1 nM): 0.903
- phenotypic distance (E21 [11]; 12.3 nM): 0.665
- phenotypic distance (E21 [11]; 37 nM): 0.548
- phenotypic distance (E21 [11]; 111.1 nM): 0.745
- phenotypic distance (E21 [11]; 333.3 nM): 0.572
- phenotypic distance (E21 [11]; 1000 nM): 0.681
- phenotypic distance (E21 [11]; 3000 nM): 1.4
- phenotypic distance (E57 [12]; 4.1 nM): 0.523
- phenotypic distance (E57 [12]; 12.3 nM): 0.695
- phenotypic distance (E57 [12]; 37 nM): 0.79
- phenotypic distance (E57 [12]; 111.1 nM): 0.477
- phenotypic distance (E57 [12]; 333.3 nM): 1.46
- phenotypic distance (E57 [12]; 1000 nM): 0.54
- phenotypic distance (E57 [12]; 3000 nM): 1.46
- phenotypic distance (FT3469 [13]; 4.1 nM): 0.624
- phenotypic distance (FT3469 [13]; 12.3 nM): 0.608
- phenotypic distance (FT3469 [13]; 37 nM): 0.488
- phenotypic distance (FT3469 [13]; 111.1 nM): 0.574
- phenotypic distance (FT3469 [13]; 333.3 nM): 0.712
- phenotypic distance (FT3469 [13]; 1000 nM): 0.892
- phenotypic distance (FT3469 [13]; 3000 nM): 1.01
- phenotypic distance (E31 [14]; 4.1 nM): 0.932
- phenotypic distance (E31 [14]; 12.3 nM): 0.387
- phenotypic distance (E31 [14]; 37 nM): 0.906
- phenotypic distance (E31 [14]; 111.1 nM): 0.74
- phenotypic distance (E31 [14]; 333.3 nM): 1.01
- phenotypic distance (E31 [14]; 1000 nM): 0.415
- phenotypic distance (E31 [14]; 3000 nM): 0.913
